# In patent publication US11453660B2, “Androgen receptor and glucocorticoid receptor modulators” (ONCOSTELLAE, S.L., priority 2017, dated 2022):
# Target: T1, Human Glucocorticoid Receptor (Homo sapiens, UniProt P04150)
# T1 construct: endogenous in cells; host or cells: cytosol from IM-9 cell line
# T1 sequence (P04150 1-777): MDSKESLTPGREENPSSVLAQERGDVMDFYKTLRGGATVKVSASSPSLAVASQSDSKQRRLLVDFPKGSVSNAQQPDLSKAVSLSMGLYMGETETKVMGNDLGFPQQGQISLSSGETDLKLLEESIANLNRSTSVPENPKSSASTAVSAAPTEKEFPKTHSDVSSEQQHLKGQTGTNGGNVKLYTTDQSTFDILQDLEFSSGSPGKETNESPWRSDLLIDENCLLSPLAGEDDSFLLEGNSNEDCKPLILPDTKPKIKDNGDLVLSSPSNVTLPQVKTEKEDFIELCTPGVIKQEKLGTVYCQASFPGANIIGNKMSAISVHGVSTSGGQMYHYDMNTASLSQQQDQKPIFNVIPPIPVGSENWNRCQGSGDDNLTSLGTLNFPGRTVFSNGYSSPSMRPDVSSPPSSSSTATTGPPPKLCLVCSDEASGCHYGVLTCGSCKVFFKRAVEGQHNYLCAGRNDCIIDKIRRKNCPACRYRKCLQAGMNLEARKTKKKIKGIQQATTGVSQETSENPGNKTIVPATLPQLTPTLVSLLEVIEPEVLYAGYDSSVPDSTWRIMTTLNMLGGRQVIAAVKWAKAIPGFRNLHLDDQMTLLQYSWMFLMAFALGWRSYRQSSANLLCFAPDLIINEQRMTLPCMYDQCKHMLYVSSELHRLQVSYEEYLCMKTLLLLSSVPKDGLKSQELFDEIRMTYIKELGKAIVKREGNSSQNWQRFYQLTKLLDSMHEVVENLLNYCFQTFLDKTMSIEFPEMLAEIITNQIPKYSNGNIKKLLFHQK
# Experiment: Competition Binding in IM-9 Human Glucocorticoid Receptor (GR IM-9)
# Conditions: cytosol from IM-9 cell line, 1.5 nM [3H]-Dexamethasone, 4° C. for 6 hours
# Experimental: Competition Binding in IM-9 Human Glucocorticoid Receptor (GR IM-9)
# Glucocorticoid receptor competition binding assays were carried out in a polypropilene 96-well plate. In each well was incubated 100 μg of cytosol from IM-9 cell line, 1.5 nM [3H]-Dexamethasone (71 Ci/mmol, 1 mCi/ml, Perkin Elmer NET1192001MC) and compounds studied and standard. Non-specific binding was determined in the presence of Triamcinolone 10 μM (Sigma Aldrich T6376).
# The reaction mixture (Vt: 200 μl/well) was incubated at 4° C. for 6 hours, 180 μL was transferred to GF/B 96-well plate (Millipore, Madrid, Spain) pretreated with 0.5% of PEI and treated with binding buffer (TES 10 mM, sodium molybdate 10 mM, EDTA 1 mM, pH 7.4, 2-mercaptoethanol 20 mM, Glycerol 10%) after was filtered and washed six times with 250 μl wash buffer (TES 10 mM, sodium molybdate 10 mM, EDTA 1 mM, pH 7.4, 2-mercaptoethanol 20 mM Glycerol 10%), before measuring in a microplate beta scintillation counter (Microbeta Trilux, PerkinElmer, Madrid, Spain).
row,Compound,IC50
1,"COC(=O)C1=C(COCCN)NC(C)=C(C(C)=O)C1c1csc2ccccc12 (stereo not drawn) [Example C114, Methyl 5-acetyl-2-((2-aminoethoxy)methyl)-4-(benzo[b]thiophen-3-yl)-6-methyl-1,4-dihydropyridine-3-carboxylate]",≥ 1000 nM
2,"COC(=O)C1=C(COCCN)NC(C)=C(C(C)=O)C1c1csc2c(Br)cccc12 (stereo not drawn) [Example C115, Methyl 5-acetyl-2-((2-aminoethoxy)methyl)-4-(7-bromobenzo[b]thiophen-3-yl)-6-methyl-1,4-dihydropyridine-3-carboxylate]",≥ 1000 nM
3,"COC(=O)C1=C(COCCN)NC(C)=C(C(C)=O)C1c1csc2c(C#N)cccc12 (stereo not drawn) [Example C116, Methyl 5-acetyl-2-((2-aminoethoxy)methyl)-4-(7-cyanobenzo[b]thiophen-3-yl)-6-methyl-1,4-dihydropyridine-3-carboxylate]",100 to 1000 nM
4,"COC(=O)C1=C(N)NC(C)=C(C(C)=O)C1c1csc2c(C#N)cccc12 (stereo not drawn) [Example D5, Methyl 5-acetyl-2-amino-4-(7-cyanobenzo[b]thiophen-3-yl)-6-methyl-1,4-dihydropyridine-3-carboxylate]",< 100 nM
5,"CC(=O)C1=C(C)NC(N)=C(C(=O)OC2CCCC2)C1c1csc2c(C#N)cccc12 (stereo not drawn) [Example D8, Cyclopentyl 5-acetyl-2-amino-4-(7-cyanobenzo[b]thiophen-3-yl)-6-methyl-1,4-dihydropyridine-3-carboxylate]",< 100 nM
6,"CC(=O)C1=C(C)NC(N)=C(C(=O)OCC2CC2)C1c1csc2c(C#N)cccc12 (stereo not drawn) [Example D10, Cyclopropylmethyl 5-acetyl-2-amino-4-(7-cyanobenzo[b]thiophen-3-yl)-6-methyl-1,4-dihydropyridine-3-carboxylate]",< 100 nM
7,"CC(=O)C1=C(C)NC(N)=C(C(=O)OC2CCC(F)(F)CC2)C1c1csc2c(C#N)cccc12 (stereo not drawn) [Example D11, 4,4-difluorocyclohexyl 5-acetyl-2-amino-4-(7-cyanobenzo[b]thiophen-3-yl)-6-methyl-1,4-dihydropyridine-3-carboxylate]",< 100 nM
8,"COC(=O)C1=C(N)NC(C)=C(C#N)C1c1csc2c(C#N)cccc12 (stereo not drawn) [Example D12, Methyl 2-amino-5-cyano-4-(7-cyanobenzo[b]thiophen-3-yl)-6-methyl-1,4-dihydropyridine-3-carboxylate]",< 100 nM
9,"CC(=O)C1=C(C)NC(N)=C(C(=O)OCc2ccc(F)cc2)C1c1csc2c(C#N)cccc12 (stereo not drawn) [Example D13, 4-fluorobenzyl 5-acetyl-2-amino-4-(7-cyanobenzo[b]thiophen-3-yl)-6-methyl-1,4-dihydropyridine-3-carboxylate]",< 100 nM
10,"COC(=O)C1=C(N)NC(C)=C(C(C)=O)C1c1csc2ncc(F)cc12 (stereo not drawn) [Example D14, Methyl 5-acetyl-2-amino-4-(5-fluorothieno[2,3-b]pyridin-3-yl)-6-methyl-1,4-dihydropyridine-3-carboxylate]",≥ 1000 nM
11,"COC(=O)C1=C(NC(C)=O)NC(C)=C(C(C)=O)C1c1csc2ncc(F)cc12 (stereo not drawn) [Example D15, Methyl 2-acetamido-5-acetyl-4-(5-fluorothieno[2,3-b]pyridin-3-yl)-6-methyl-1,4-dihydropyridine-3-carboxylate]",100 to 1000 nM
12,"CC(=O)C1=C(C)NC(N)=C(C(=O)OCC2CCCC2)C1c1csc2c(C#N)cccc12 (stereo not drawn) [Example D16, Cyclopentylmethyl 5-acetyl-2-amino-4-(7-cyanobenzo[b]thiophen-3-yl)-6-methyl-1,4-dihydropyridine-3-carboxylate]",< 100 nM
13,"COC(=O)C1=C(C)NC(N)=C(C(=O)OCC2CC2)C1c1csc2c(C#N)cccc12 (stereo not drawn) [Example D17, 3-(cyclopropylmethyl) 5-methyl 2-amino-4-(7-cyanobenzo[b]thiophen-3-yl)-6-methyl-1,4-dihydropyridine-3,5-dicarboxylate]",< 100 nM
14,"COC(=O)C1=C(N)NC(C2CC2)=C(C(=O)OC)C1c1csc2c(C#N)cccc12 (stereo not drawn) [Example D18, Dimethyl 2-amino-4-(7-cyanobenzo[b]thiophen-3-yl)-6-cyclopropyl-1,4-dihydropyridine-3,5-dicarboxylate]",< 100 nM
15,"COC(=O)C1=C(C2CC2)NC(N)=C(C(=O)OCC2CC2)C1c1csc2c(C#N)cccc12 (stereo not drawn) [Example D19, 3-(cyclopropylmethyl) 5-methyl 2-amino-4-(7-cyanobenzo[b]thiophen-3-yl)-6-cyclopropyl-1,4-dihydropyridine-3,5-dicarboxylate]",< 100 nM
16,"COC(=O)C1=C(N)NC(N)=C(C(=O)OC)C1c1csc2c(C#N)cccc12 [Example D20, dimethyl 2,6-diamino-4-(7-cyanobenzo[b]thiophen-3-yl)-1,4-dihydropyridine-3,5-dicarboxylate]",100 to 1000 nM
17,"COC(=O)C1=C(N)NC(C2CC2)=C(C(=O)OCC2CC2)C1c1csc2c(C#N)cccc12 (stereo not drawn) [Example D21, 5-(cyclopropylmethyl) 3-methyl 2-amino-4-(7-cyanobenzo[b]thiophen-3-yl)-6-cyclopropyl-1,4-dihydropyridine-3,5-dicarboxylate]",< 100 nM
18,"CC(=O)C1=C(C)NC(N)=C(C(=O)OCC2CC2)C1c1csc2cc(C#N)ccc12 (stereo not drawn) [Example D28, Cyclopropylmethyl 5-acetyl-2-amino-4-(6-cyanobenzo[b]thiophen-3-yl)-6-methyl-1,4-dihydropyridine-3-carboxylate]",100 to 1000 nM
19,"COC(=O)C1=C(C)NC(N)=C(C(=O)OCC2CC2)C1c1csc2c(C#N)ccnc12 (stereo not drawn) [Example D44, 3-(Cyclopropylmethyl) 5-methyl 2-amino-4-(7-cyanothieno[3,2-b]pyridin-3-yl)-6-methyl-1,4-dihydropyridine-3,5-dicarboxylate]",< 100 nM
20,"COC(=O)C1=C(C)NC(N)=C(C(=O)OCC2CC2)C1c1csc2c(C#N)cc(C#N)cc12 (stereo not drawn) [Example D48, 3-(Cyclopropylmethyl) 5-methyl 2-amino-4-(5,7-dicyanobenzo[b]thiophen-3-yl)-6-methyl-1,4-dihydropyridine-3,5-dicarboxylate]",< 100 nM
21,"COC(=O)C1=C(C)NC(N)=C(C(=O)OCC(F)(F)F)C1c1csc2c(C#N)cccc12 (stereo not drawn) [Example D50, 5-Methyl 3-(2,2,2-trifluoroethyl) 2-amino-4-(7-cyanobenzo[b]thiophen-3-yl)-6-methyl-1,4-dihydropyridine-3,5-dicarboxylate]",< 100 nM
22,"CC1=C(C(=O)OCC(F)(F)F)C(c2csc3c(C#N)cccc23)C(C(=O)OCC2CC2)=C(N)N1 (stereo not drawn) [Example D51, 3-(Cyclopropylmethyl) 5-(2,2,2-trifluoroethyl) 2-amino-4-(7-cyanobenzo[b]thiophen-3-yl)-6-methyl-1,4-dihydropyridine-3,5-dicarboxylate]",< 100 nM
23,"COC(=O)C1=C(C)NC(N)=C(C(=O)OCC2CC2)C1c1csc2c(C#N)c(Cl)ccc12 (stereo not drawn) [Example D52, 3-(Cyclopropylmethyl) 5-methyl 2-amino-4-(6-chloro-7-cyanobenzo[b]thiophen-3-yl)-6-methyl-1,4-dihydropyridine-3,5-dicarboxylate]",< 100 nM
24,"COC(=O)C1=C(C)NC(N)=C(C(=O)OCC(C)(C)F)C1c1csc2c(C#N)cccc12 (stereo not drawn) [Example D53, 3-(2-Fluoro-2-methylpropyl) 5-methyl 2-amino-4-(7-cyanobenzo[b]thiophen-3-yl)-6-methyl-1,4-dihydropyridine-3,5-dicarboxylate]",< 100 nM
25,"COC(=O)C1=C(C)NC(N)=C(C(=O)OCC2CC2)C1c1csc2c(C#N)c(C(F)(F)F)ccc12 (stereo not drawn) [Example D54, 3-(Cyclopropylmethyl) 5-methyl 2-amino-4-(7-cyano-6-(trifluoromethyl)benzo[b]thiophen-3-yl)-6-methyl-1,4-dihydropyridine-3,5-dicarboxylate]",< 100 nM
26,"C#CCOC(=O)C1=C(N)NC(C)=C(C(=O)OC)C1c1csc2c(C#N)cccc12 (stereo not drawn) [Example D55, 5-Methyl 3-prop-2-yn-1-yl 2-amino-4-(7-cyanobenzo[b]thiophen-3-yl)-6-methyl-1,4-dihydropyridine-3,5-dicarboxylate]",< 100 nM
27,"COC(=O)C1=C(C(F)(F)F)NC(N)=C(C(=O)OCC2CC2)C1c1csc2c(C#N)cccc12 (stereo not drawn) [Example D56, 3-(Cyclopropylmethyl) 5-methyl 2-amino-4-(7-cyanobenzo[b]thiophen-3-yl)-6-(trifluoromethyl)-1,4-dihydropyridine-3,5-dicarboxylate]",< 100 nM
